Laboratory results: patent publication US7566808B2, “Management of ophthalmologic disorders, including macular degeneration” (President and Fellows of Harvard College, priority 2004, dated 2009)

Key:
Type in all cases: in vivo
Balb/c mice = assay: 11-cis-retinal regeneration after bleaching in mice
Experimental: Animal Studies: Protocols were approved by the Standing Committee on Animal Care of Harvard Medical School, the Institutional Animal Care and Use Committee of Columbia University and complied with guidelines set forth by The Association for Research in Vision and Ophthalmology. 7 week old male Balb/c albino mice and 7 week old male Sprague-Dawley rats were from Charles River Breeding Laboratories and were housed in 12:12 h light:dark cycle. 8-10 week old Abcr null mutant mice (129/SV×C57BL/6J) were generated as formerly described (12,20) and Abcr^−/− and Abcr^+/+ mice were raised under 12-hour on-off cyclic lighting with an in-cage illuminance of 30-50 lux. In Abcr^−/− and Abcr^+/+ mice, Rpe65 was 9 sequenced as reported previously.
Similar experiments with inhibitors were also performed in Balb/c mice. Here again inhibition is observed, but the effects are less pronounced than in rats, both with 13-RA and the isoprenoid antagonists. The inhibition values are as follows: 13-RA (33±4%), TDT (35±2%), and TDH (24±6%). It is noteworthy that in rats the 11-cis chromophore is regenerated considerably more slowly than in mice.

[1] = test system: Abca4+/+ (Rpe65 450Leu, pigmented, 129/SV×C57BL/6J) mice; assay: ERG rod b-wave amplitude recovery after photo-bleaching; details: 50 mg/kg i.p., 3 days after treatment
Experimental: Electroretinogram Determinations (ERG): Mice were dark-adapted overnight before all ERG experiments. To determine the acute effect of compounds under study, mice were given a single i.p. injection of […] Control (“untreated”) animals were injected with 25 uL of DMSO. Mice were anaesthetized with ketamine (80 mg/kg) and xylazine (5-10 mg/kg) and pupils were dilated with 1% phenylephrine and 1% cyclopentolate, followed by an exposure to 5000 lux bleaching light for 2 min.
The ERG was recorded from the cornea with a cotton wick saline electrodes for about 50 min immediately after bleaching. Subcutaneous 30 gauge needles on the forehead and trunk were used as reference and ground electrodes, respectively. The animals rested on a heater maintaining the body temperature at 37° C. The light stimulus was obtained from a ganzfeld stimulator having a stroboscope (PS33 Grass Instruments Inc., West Warwick, R.I.) removed from its housing and recessed above and behind the head of the mouse. The flash was diffused to cover the ganzfeld homogeneously. Maximum flash intensity was measured with a calibrated light meter (J16 Tektronics Instruments, Beaverton, Oreg.). Responses were averaged by a Macintosh computer-controlled data acquisition system (PowerLab, AD Instruments, Mountain View, Calif.) at a frequency of 0.1 Hz. […]
The same animals were subjected to ERG experiments according to exactly the same protocol 3 days later, except no (repeated) injection of compounds was performed.
Acute effects: In order to determine whether TDT and TDH have an effect on the visual cycle in vivo, the overnight dark-adapted Abca4^+/+ (Rpe65 450Leu, pigmented, 129/SV×C57BL/6J) mice received single (i.p.) injections of the two compounds at 50 mg/kg. […]
Results are averaged from three mice in each group with SD bars shown. Both isoprenoids delayed the recovery of dark-adapted visual responses to an extent similar to that of 13-RA as judged from dark-adapted ERG b-wave amplitudes recorded using dim light flashes delivered immediately before and at regular intervals after photo-bleaching.

Sprague Dawley rats = assay: 11-cis-retinal regeneration after bleaching in rats; details: for average inhibition of 11-cis-retinal regeneration: 50 mg/kg i.p. single injection, rats
Experimental: To establish whether recovery of the dark-adapted rod b-wave was retarded because of an effect on 11-cis-retinal synthesis we studied the effects of TDT on 11-cis-retinal regeneration in rats and mice. The 11-cis-retinal that is regenerated is essentially all bound to rhodopsin in rodents, so that measuring its level is equivalent to measuring the rhodopsin content. Initial experiments were performed on Sprague Dawley rats because similar experiments using 13-RA were previously carried out using these animals so that ready comparisons of potency and effectiveness can be made. […] Accordingly, in the current experiments, the rats were given single injections (i.p.) of TDT (TDH) (50 mg/kg in DMSO), 13-RA (50 mg/kg in DMSO), and DMSO alone. After injecting the analogs, the rats were dark adapted for 2 h, and then exposed to light that led to <10% of dark adapted 11-cis-retinal in these animals, compared to dark adapted controls (data not shown). After allowing the bleached rats to dark-adapt again for 30 min, the animals were sacrificed, and the regenerated 11-cis-retinal was determined as indicated in Methods. In these experiments, the amount of resynthesized 11-cis-retinal, the chromophore of rhodopsin, is measured by HPLC and compared to the amounts of all-trans-retinyl ester precursor.
These figures show results of HPLC analysis of extracted retinoids from drug treated rats. […] In FIG. 28A, the relative amounts of 11-cis-retinal-syn-oxime and all-trans-(cis)-retinyl esters are shown for the control (−13-RA) (top) and drug treated animals (bottom). In FIG. 28B, the corresponding data are shown for the TDT treated rats (top-control, bottom TDT treated). In this case, the ester pool in the drug treated rat is largely, if not exclusively, all-trans. […] Upon repetition of the experiments two further times the average inhibition values are as follows: 13-RA (78±2%), TDT (79±4%), and TDH (55±2%). These percent inhibition values are generated by comparing the integrated areas under the retinyl ester and 11-cis-retinal-syn-oxime peaks. (Materials and Methods).

SMILES | inhibition of 11-cis-retinal regeneration (Balb/c mice) | effect on rod b-wave recovery [1] | average inhibition of 11-cis-retinal regeneration (Sprague Dawley rats) | inhibitory effect on 11-cis-retinal regeneration (Sprague Dawley rats; 50 mg/kg i.p., FIG. 28C)
CC1=C(/C=C/C(C)=C/C=C/C(C)=C\C(=O)O)C(C)(C)CCC1 [13-cis-retinoic acid, reference compound] | 33±4% | no sustained effect | 78±2% | 
CCCCCCCCCCCCCCCCNC(=O)/C=C(\C)CC/C=C(\C)CCC=C(C)C [TDH, 3,7,11-Trimethyl-dodeca-2,6,10-trienoic acid hexadecylamide] | 24±6% | substantial effect | 55±2% | less pronounced than with TDT
CCCCCCCCCCC(=O)/C=C(\C)CC/C=C(\C)CCC=C(C)C [TDT, 13,17,21-Trimethyl-docosa-12,16,20-trien-11-one] | 35±2% | substantial effect | 79±4% | 
